Like-named read-outs stand apart in the source and are kept apart here.
Key:
in vivo [1] = assay: in vivo; set-up: AUCiv: unit not given beside the values; conditions: mouse, in vivo
Excerpt: Relative Exposure(RE)=AUCi sample/AUCi control
AUCi—area under curve for the i^th organ or tissue; RE>1 indicates targeting at the organ or tissue, with larger RE indicating greater targeting; RE≦1 indicates non-targeting.
RTE refers to the multiple of the percent of drug content in a tissue of sample group with respect to total drug amount in the body vs. that in a control group. Positive RTE values indicate enhanced targeting effects and the more positive the more the multiple of enhancement and the more the enhanced targeting. In contrast, negative RTE values indicate reduced targeting effects. Value 0 indicate no influence to the tissue.
0.083 h, 0.25 h, 0.5 h, 1 h, 3 h, 8 h post injection, blood was taken by eyeball removal and the mice were sacrificed by cervical dislocation. Tissues were perfused with normal saline and livers and kidneys were removed and cleaned with normal saline. The blood samples were centrifuged to obtain supernatants and stored at −20° C. 50 μL plasma sample and 50 μL internal standard (clozapine) working solution was vortexed with 300 μL MeOH and then centrifuged. 150 μL upper organic phase was obtained and mixed with 150 μL water, followed by centrifugation. 10 μL supernatant was sampled for analysis. The tissue samples were weighted and mixed homogeneously with 10 times weight of water. Since the samples were 10-time diluted, the concentration of the tissue would be 10 times the results determined. The heart tissue was 5-time diluted. 100 μL homogenate was mixed with 50 μL internal standard (clozapine) working solution and 300 μL MeOH and then centrifuged. 150 μL upper organic phase was obtained and mixed with 150 μL water, followed by centrifugation. 10 μL supernatant was sampled for analysis.

in vivo [2] = format: in vivo; set-up: AUCpo: unit not given beside the values; conditions: mouse, in vivo
Excerpt: Animal experiments: 24 mice in each group were divided into 8 sub-groups.

[3] = Stability of compounds 1 and 2 in MeOH stock solution and with biomass; format: physicochemical
Excerpt: No prodrug was detected in organs except for spleen during processing. […] The prodrugs may be converted to Sunitinib or other metabolite during processing or in vivo.

[4] = system: A549; NCI-H460; 786-O; Caki-1; HT-29; MCF-7; assay: 72 hour cytotoxicity (CCK8) in different cell lines; format: cell-based, human
Excerpt: A549 human non-small cell lung cancer cell line, NCI-H460 human non-small cell lung cancer cell line, 786-O human renal cell line, Caki-1 human renal cell line, HT-29 human colon cancer cell line, MDA-MB-231 human breast cancer cell line, and MCF-7 human breast cancer cell line was purchased from Chinese Academy of Science Shanghai Branch. PLC/PRF-5 human hepatoma cell line and Hepal-6 mouse hepatoma cell line were obtained from Institute of Biochemistry and Cell Biology, SIBS, CAS (SIBCB). Cell lines A549, Caki-1, HT-29, MDA-MB-231, MCF-7, PLC/PRF-5 and Hepal-6 were cultured in DMEM medium (Gibco, Life Technologies, China) and cell lines NCI-H460 and 786-O were cultured in RPMI-1640 medium (Gibco, Life Technologies, China). 10% HI fetal bovine serum was purchased from Gibco, Life Technologies, USA and 1% penicillin/streptomycin was obtained from Hyclone.
(§1) Approx. 2,000 cells in 50 μL complete medium were plated on each well of a 96-well plate and incubated at 37° C., 5% CO2 overnight. Drugs at concentrations of 0.02 to 10 μM were dissolved in 0.1% DMSO, followed by addition into each well. After incubation for 72 hours, 10 μL CCK8 (Dojindo) was added into each well, followed by incubation at 37° C. for another 4 hours. The OD values were obtained by TECAN Microplate Reader at 450 nm.
(§2) For in vitro tests, compounds were directly dissolved in 10 mM DMSO and stored at −20° C. For in vivo tests, the compounds were dissolved in DMSO and neutralized by Tween 80 (DMSO:Tween=1:1) and further neutralized by PBS (pH 7.4). The final concentrations of DMSO and Tween-80 were 5%.

786-O cell or A549 cell = assay: Cell morphology and survival rate after 4 to 8 hours incubation; format: cell-based, human; conditions: for cell survival: 786-O cell or A549 cell, incubated for 8 hours; for cell morphology: cancer cells incubated for 4 hours
cancer cell xenograft = assay: Pharmacodynamic tests on mice xenograft transplantation model; format: in vivo; conditions: intraperitoneally injected 1.5, 7.5, 30 mg/kg once a day for 2 weeks
Method: as §2
5×10^6 cancer cells were subcutaneously injected to the right side of mouse. Drug was intraperitoneally injected at dosages of 1.5 mg/kg, 7.5 mg/kg, 30 mg/kg to the mice, once a day, for 2 weeks when average tumor size reached 75 to 150 mm^3. The size of the tumor was measured every other day. […] Compound 1 had less efficacy.
We then performed the test through oral route. 5×10^6 cancer cells were subcutaneously injected to the right side of mouse. Drug was orally administered at dosages of 5 mg/kg, 15 mg/kg, 45 mg/kg to the mice, once a day, for 2 weeks when average tumor size reached 75 to 150 mm^3. The size of the tumor was measured every other day.

[5] = system: A549 human non-small cell lung cancer cell line; assay: 72-hour (long term) cell killing effects; format: cell-based; conditions: CCK8
Method: Cell lines and Culture: Cell line A549 was cultured in DMEM medium (Gibco, Life Technologies, China). 10% HI fetal bovine serum was purchased from Gibco, Life Technologies, USA and 1% penicillin/streptomycin was obtained from Hyclone.
as §1, with “0.02 μM” for “0.02”
Processing of Compounds: For in vitro tests, compounds were directly dissolved in 10 mM DMSO and stored at −20° C.

pSTAT3 = assay: Effects on STAT3 phosphorylation in A549 cell line; format: cell-based, human; conditions: 10 μM
Method: as §2

[6] = Acute toxicity test: maximum tolerance dosage (MTD) determination; format: in vivo, BALB/c mice
Method: Methods: Femal BALB/c mice, 4-5 weeks old, weighted greater than 17 g, were used for the test. […] The body weights and conditions of the mice were recorded.
In contrast, the body weights of mice in compound 2 group increased 6.0% in average.
To further explore the toxicity of the compounds, blood was collected after 14-day treatment of drugs and critical biochemical index were analyzed.

[7] = blood after 14-day treatment, 200 mg/kg
[8] = oral once a day for 14 days, 175 mg/kg
[9] = repeated test, oral once a day, 200 mg/kg

In the case of `CCN(CC)CCNC(=O)c1c(C)[nH]c(C=C2C(=O)N(CC(=O)OC(C)(C)C)c3ccc(F)cc32)c1C` [Compound 1, N-[2-(diethylamino)ethyl]-5-[(5-fluoro-2-oxo-1-(t-butylcarboxymethyl)-2,3-indolin-3-ylmethylene)]-2,4-dimethyl-1H-pyrrolidine-3-carboxamide], the AUCiv (in vivo [1]; iv) is reported as 478.9, the Cl (in vivo [1]; iv) is reported as 267.5 mL/h and the “Cmax, times than that of the control” value (in vivo [1]; iv) is reported as “approx. 5 times”. The “RTE analysis: distribution proportions in organs” value (in vivo [1]; iv) was “increased distribution proportions in liver and spleen”, the Tmax (in vivo [1]; iv) was 4.8 min and the AUCpo (in vivo [2]; po) was 946.2. For the same compound, the Cl (in vivo [2]; po) was 3848.9 mL/h, the Tmax (in vivo [2]; po) was 30 min and the t1/2 (in vivo [2]; po) was 176 min. For the same compound, the “stability in the event of coexisting with biomass” value [3] was “easy to degrade”, the “IC50 values among several cell lines” value ([4]; 72 hours, CCK8, FIG. 5a-f) was “comparable” and the “tumor killing effects / cytotoxicity” value ([4]; 72 hours, CCK8, FIG. 5a-f) was “relatively strong tumor killing effects”. The cell survival (786-O cell or A549 cell) was “mass cell death”, the cell morphology (786-O cell or A549 cell) was “changed to round and suffered from stress” and the “efficacy on tumor size” value (cancer cell xenograft) was “less efficacy”.

For `CCN(CC)CCNC(=O)c1c(C)[nH]c(/C=C2\C(=O)N(COC(=O)N(C)C)c3ccc(F)cc32)c1C` [Compound 6, N-[2-(diethylamino)ethyl]-5-[(5-fluoro-2-oxo-1-(N,N-dimethylaminocarboxymethyl)-2,3-indolin-3-ylmethylene)]-2,4-dimethyl-1H-pyrrolidine-3-carboxamide], the IC50 [5] was 8.46 µM.

For `CCN(CC)CCNC(=O)c1c(C)[nH]c(/C=C2\C(=O)N(COC(=O)OC(C)(C)C)c3ccc(F)cc32)c1C` [Compound 7, N-[2-(diethylamino)ethyl]-5-[(5-fluoro-2-oxo-1-(t-butoxycarboxymethyl)-2,3-indolin-3-ylmethylene)]-2,4-dimethyl-1H-pyrrolidine-3-carboxamide], the IC50 [5] was 1.79 µM.

For `CCOC(=O)OCN1C(=O)/C(=C\c2[nH]c(C)c(C(=O)NCCN(CC)CC)c2C)c2cc(F)ccc21` [Compound 8], the IC50 [5] was 1.11 µM.

`CCN(CC)CCNC(=O)c1c(C)[nH]c(/C=C2\C(=O)N(COC(=O)C3CCCCC3)c3ccc(F)cc32)c1C` [Compound 9, N-[2-(diethylamino)ethyl]-5-[(5-fluoro-2-oxo-1-(cyclohexylcarboxymethyl)-2,3-indolin-3-ylmethylene)]-2,4-dimethyl-1H-pyrrolidine-3-carboxamide] showed an IC50 [5] of 4 µM.

For `CCN(CC)CCNC(=O)c1c(C)[nH]c(/C=C2\C(=O)N(COC(C)=O)c3ccc(F)cc32)c1C` [Compound 10], the IC50 [5] was 7.46 µM.

`CCN(CC)CCNC(=O)c1c(C)[nH]c(/C=C2\C(=O)N(COC(=O)C3CC3)c3ccc(F)cc32)c1C` [Compound 11] gave an IC50 [5] of 2.56 µM.

`CCN(CC)CCNC(=O)c1c(C)[nH]c(/C=C2\C(=O)N(COC(=O)C(C)C)c3ccc(F)cc32)c1C` [Compound 12, N-[2-(diethylamino)ethyl]-5-[(5-fluoro-2-oxo-1-(isopropylcarboxymethyl)-2,3-indolin-3-ylmethylene)]-2,4-dimethyl-1H-pyrrolidine-3-carboxamide] gave an IC50 [5] of 9.07 µM.

`CCN(CC)CCNC(=O)c1c(C)[nH]c(/C=C2\C(=O)N(COC(=O)c3ccc(OC)cc3)c3ccc(F)cc32)c1C` [Compound 13, N-[2-(diethylamino)ethyl]-5-[(5-fluoro-2-oxo-1-(p-methoxyphenylcarboxymethyl)-2,3-indolin-3-ylmethylene)]-2,4-dimethyl-1H-pyrrolidine-3-carboxamide] gave an IC50 [5] of 3 µM.

Compound `CCN(CC)CCNC(=O)c1c(C)[nH]c(/C=C2\C(=O)Nc3ccc(F)cc32)c1C.O=C(O)C[C@H](O)C(=O)O` [Sunitinib, reference compound] has a half-life (in vivo [1]; 5.14 mg/kg) of 74.4 min, a Tmax (in vivo [1]; iv, 5.14 mg/kg) of 4.8 min and a clearance (in vivo [1]; iv, 5.14 mg/kg) of 4.51 mL/min. For the same compound, the AUC (in vivo [1]; iv, 5.14 mg/kg, AUCall) was 365 ng·h/mL, the AUC (in vivo [1]; iv, AUCiv) was 365 ng·h/mL and the bioavailability (in vivo [2]) was 15%. The AUC (in vivo [2]; po) was 214 ng·h/mL, the bioavailability (in vivo [2]; po) was 15.1% and the AUC(0-inf) (in vivo [2]; po, 20 mg/kg) was 43.1 ng·h/mL. The Cmax (in vivo [2]; po, 20 mg/kg) was 9.58 ng/mL, the Tmax (in vivo [2]; po, 20 mg/kg) was 30 min and the half-life (in vivo [2]; po, 20 mg/kg) was 284 min. For the same compound, the “inhibition of pSTAT3” value (pSTAT3) was “strong inhibition”, the “tumor killing effects / cytotoxicity” value [4] was “relatively strong tumor killing effects” and the “IC50 values among several cell lines” value ([4]; 72 hours, CCK8, FIG. 5a-f) was “comparable”. For the same compound, the cell survival (786-O cell or A549 cell) was “did not affect cell survival”, the cell morphology (786-O cell or A549 cell) was “remained attached, elongate, and did not exhibit abnormal morphology” and the blood glucose [6, 7] was “decreased”. The “levels of aspartate transaminase (AST) alanine aminotransferase (ALT) and cholinesterase (CHE)” value [6, 7] was “significantly elevated”, the “levels of lactate dehydrogenase (LDH), creatine kinase (CK) and creatine kinase-MB (CKMB)” value [6, 7] was “elevated” and the “levels of urate and blood urea nitrogen” value [6, 7] was “increased”. The “effects on the body weights” value ([6]; oral once a day for 14 days, 28 mg/kg and 70 mg/kg) was “little effects”, the “average body weight reduce” value [6, 8] was 17.6% and the “condition of the mice” value [6, 8] was “extremely weak”. The “influence on body weight” value ([6]; repeated test, oral once a day, 100 mg/kg) was “body weights did not increase”, the “average body weight reduce” value [6, 9] was 20% and the “condition of the mice” value [6, 9] was “extremely weak”.

From patent US20180022734A1 (Sound Biopharmaceuticals Ltd., priority 2015, published 2018)
